target: SIK2 (Homo sapiens (Human), UniProt Q9H0K1); assay: SIK2 Enzymatic Assay Version 2 (High ATP); assay type: biochemical; conditions: 3 mM ATP and 200 μM HDAC5tide final, ADP-Glo Max luminescence
How it was run: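 Run at room temperature; SIK2 enzyme at 6 nM (2× final) preincubated with compound 30 min before reaction. ADP formation detected by ADP-Glo Max (2 h reagent, 1 h detection) with luminescence read-out.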

Chain of SIK2 (Q9H0K1 whole entry, species assumed): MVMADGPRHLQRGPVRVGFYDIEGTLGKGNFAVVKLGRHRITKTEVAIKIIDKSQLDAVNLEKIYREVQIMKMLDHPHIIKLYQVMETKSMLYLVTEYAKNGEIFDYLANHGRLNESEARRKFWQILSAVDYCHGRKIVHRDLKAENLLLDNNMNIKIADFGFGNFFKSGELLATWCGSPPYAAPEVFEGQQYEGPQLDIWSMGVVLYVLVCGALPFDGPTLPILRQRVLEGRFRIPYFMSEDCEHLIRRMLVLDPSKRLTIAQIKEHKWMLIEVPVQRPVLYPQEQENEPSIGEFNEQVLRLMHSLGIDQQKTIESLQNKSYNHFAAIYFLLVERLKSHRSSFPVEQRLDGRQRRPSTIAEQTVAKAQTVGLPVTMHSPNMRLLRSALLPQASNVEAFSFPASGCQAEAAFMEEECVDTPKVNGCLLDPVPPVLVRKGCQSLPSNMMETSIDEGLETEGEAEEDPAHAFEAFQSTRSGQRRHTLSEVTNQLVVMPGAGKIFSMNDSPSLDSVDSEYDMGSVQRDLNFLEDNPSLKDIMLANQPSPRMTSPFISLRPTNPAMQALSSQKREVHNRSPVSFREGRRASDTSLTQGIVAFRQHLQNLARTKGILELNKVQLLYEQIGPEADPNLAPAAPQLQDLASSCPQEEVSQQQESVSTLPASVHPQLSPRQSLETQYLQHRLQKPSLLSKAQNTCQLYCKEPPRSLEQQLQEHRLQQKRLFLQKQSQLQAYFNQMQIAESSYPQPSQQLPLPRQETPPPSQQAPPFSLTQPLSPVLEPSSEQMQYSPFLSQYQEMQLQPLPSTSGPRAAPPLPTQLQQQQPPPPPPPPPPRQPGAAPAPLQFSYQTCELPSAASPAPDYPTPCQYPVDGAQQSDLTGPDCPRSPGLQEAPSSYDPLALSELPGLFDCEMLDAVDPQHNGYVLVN

**Q.** How did the IC50 turn out when `C[C@H]1C[C@H](Oc2cnn(C)c2-c2ccn3nc(NC(=O)C4CC4)cc3c2)CN1` [Example 338, N-[5-[2-methyl-4-[(3S,5S)-5-methylpyrrolidin-3-yl]oxy-pyrazol-3-yl]pyrazolo[1,5-a]pyridin-2-yl]cyclopropanecarboxamide] was run?
**A.** Its IC50 is 53 nM.

**Q.** For `CN1CC[C@H](Oc2cnn(C)c2-c2ccn3nc(Nc4ccc(C(F)(F)F)cn4)cc3c2)C1` [Example 339, 5-[2-methyl-4-[(3S)-1-methylpyrrolidin-3-yl]oxy-pyrazol-3-yl]-N-[5-(trifluoromethyl)-2-pyridyl]pyrazolo[1,5-a]pyridin-2-amine], which IC50 is on record?
**A.** The IC50 was 68.5 nM.

**Q.** For `CN1CC[C@H](Oc2cnn(C)c2-c2ccn3nc(Nc4cc(C(F)(F)F)ccn4)cc3c2)C1` [Example 340, 5-[2-methyl-4-[(3S)-1-methylpyrrolidin-3-yl]oxy-pyrazol-3-yl]-N-[4-(trifluoromethyl)-2-pyridyl]pyrazolo[1,5-a]pyridin-2-amine], which IC50 is on record?
**A.** Its IC50 is 55.4 nM.

**Q.** For `C[C@H]1CN[C@@H]1COc1cnn(C)c1-c1ccn2nc(NC(=O)C3CC3)cc2c1` [Example 341, N-[5-[2-methyl-4-[[(2S,3S)-3-methylazetidin-2-yl]methoxy]pyrazol-3-yl]pyrazolo[1,5-a]pyridin-2-yl]cyclopropanecarboxamide], which IC50 is on record?
**A.** Its IC50 is 57.7 nM.

**Q.** How did the IC50 turn out when `CN1CC[C@H](Oc2cnn(C)c2-c2ccn3nc(Nc4cc5ccccc5nn4)cc3c2)C1` [Example 342, N-[5-[2-methyl-4-[(3S)-1-methylpyrrolidin-3-yl]oxy-pyrazol-3-yl]pyrazolo[1,5-a]pyridin-2-yl]cinnolin-3-amine] was run?
**A.** The IC50 was 68.8 nM.

**Q.** Which IC50 does the source give for `CN1CC[C@H](Oc2cnn(C)c2-c2ccn3nc(Nc4cnc5ccccc5n4)cc3c2)C1` [Example 343, N-[5-[2-methyl-4-[(3S)-1-methylpyrrolidin-3-yl]oxy-pyrazol-3-yl]pyrazolo[1,5-a]pyridin-2-yl]quinoxalin-2-amine] here?
**A.** Its IC50 is 54.8 nM.

**Q.** `CN1CC[C@H](Oc2cnn(C)c2-c2ccn3nc(Nc4cc5ccccn5n4)cc3c2)C1` [Example 344, 5-[2-methyl-4-[(3S)-1-methylpyrrolidin-3-yl]oxy-pyrazol-3-yl]-N-pyrazolo[1,5-a]pyridin-2-yl-pyrazolo[1,5-a]pyridin-2-amine] was tested. Which IC50 did it give?
**A.** Its IC50 is 56 nM.

**Q.** With `Cn1ncc(OC[C@H]2CNC[C@@H]2O)c1-c1ccn2nc(NC(=O)C3CC3)cc2c1` [Example 345, N-[5-[4-[[(3R,4R)-4-hydroxypyrrolidin-3-yl]methoxy]-2-methyl-pyrazol-3-yl]pyrazolo[1,5-a]pyridin-2-yl]cyclopropanecarboxamide] as the compound, how does the IC50 read?
**A.** Its IC50 is 58.2 nM.

**Q.** `Cn1ncc(OC[C@H]2CCN2)c1-c1ccn2nc(NC(=O)C3CC3)cc2c1` [Example 346, (R)—N-(5-(4-(azetidin-2-ylmethoxy)-1-methyl-1H-pyrazol-5-yl)pyrazolo[1,5-a]pyridin-2-yl)cyclopropanecarboxamide] was tested. Which IC50 did it give?
**A.** Its IC50 is 58.9 nM.

**Q.** `Cn1ncc(OC[C@H]2CCN2C2CC2)c1-c1ccn2nc(NC(=O)C3CC3)cc2c1` [Example 347, N-[5-[4-[[(2R)-1-cyclopropylazetidin-2-yl]methoxy]-2-methyl-pyrazol-3-yl]pyrazolo[1,5-a]pyridin-2-yl]cyclopropanecarboxamide] was tested. Which IC50 did it give?
**A.** Its IC50 is 68 nM.

**Q.** Which IC50 does the source give for `Cn1ncc(OC[C@@H](N)C(C)(C)C)c1-c1ccn2nc(NC(=O)C3CC3)cc2c1` [Example 348, N-[5-[4-[(2S)-2-amino-3,3-dimethyl-butoxy]-2-methyl-pyrazol-3-yl]pyrazolo[1,5-a]pyridin-2-yl]cyclopropanecarboxamide] here?
**A.** Its IC50 is 55.3 nM.

**Q.** For `Cc1ncc(Nc2cc3cc(-c4c(O[C@H]5CCN(C)C5)cnn4C)ccn3n2)nc1C` [Example 349, N-(5,6-dimethylpyrazin-2-yl)-5-[2-methyl-4-[(3S)-1-methylpyrrolidin-3-yl]oxy-pyrazol-3-yl]pyrazolo[1,5-a]pyridin-2-amine], which IC50 is on record?
**A.** The IC50 was 55.9 nM.

**Q.** How did the IC50 turn out when `Cn1ncc(OC[C@H]2CCCN2CCF)c1-c1ccn2nc(NC(=O)C3CC3)cc2c1` [Example 350, N-[5-[4-[[(2R)-1-(2-fluoroethyl)pyrrolidin-2-yl]methoxy]-2-methyl-pyrazol-3-yl]pyrazolo[1,5-a]pyridin-2-yl]cyclopropanecarboxamide] was run?
**A.** The IC50 was 66.2 nM.

**Q.** For `CO[C@H]1CNC[C@@H]1COc1cnn(C)c1-c1ccn2nc(NC(=O)C3CC3)cc2c1` [Example 351, N-[5-[4-[[(3R,4R)-4-methoxypyrrolidin-3-yl]methoxy]-2-methyl-pyrazol-3-yl]pyrazolo[1,5-a]pyridin-2-yl]cyclopropanecarboxamide], which IC50 is on record?
**A.** Its IC50 is 52.6 nM.

**Q.** Which IC50 does the source give for `Cc1cc(Nc2cc3cc(-c4c(O[C@@H]5CCN(C)[C@H]5C)cnn4C)ccn3n2)nc(C)n1` [Example 354, N-(2,6-dimethylpyrimidin-4-yl)-5-[4-[(2S,3R)-1,2-dimethylpyrrolidin-3-yl]oxy-2-methyl-pyrazol-3-yl]pyrazolo[1,5-a]pyridin-2-amine] here?
**A.** Its IC50 is 67.3 nM.

**Q.** For `[2H]C([2H])([2H])N1CC[C@@H]1COc1cnn(C([2H])([2H])[2H])c1-c1ccn2nc(Nc3cc(C)nc(C)n3)cc2c1` [Example 355, N-(2,6-dimethylpyrimidin-4-yl)-5-[2-(trideuteriomethyl)-4-[[(2R)-1-(trideuteriomethyl)azetidin-2-yl]methoxy]pyrazol-3-yl]pyrazolo[1,5-a]pyridin-2-amine], which IC50 is on record?
**A.** The IC50 was under 0.847 nM.

**Q.** How did the IC50 turn out when `CCN1CC[C@H]1COc1cnn(C)c1-c1ccn2nc(Nc3cnc(C)c(C)n3)cc2c1` [Example 359, N-(5,6-dimethylpyrazin-2-yl)-5-[4-[[(2S)-1-ethylazetidin-2-yl]methoxy]-2-methyl-pyrazol-3-yl]pyrazolo[1,5-a]pyridin-2-amine] was run?
**A.** The IC50 was 52.4 nM.

**Q.** `Cn1ncc(COC2CNC2)c1-c1ccn2nc(NC(=O)C3CC3)cc2c1` [Example 360, N-[5-[4-(azetidin-3-yloxymethyl)-2-methyl-pyrazol-3-yl]pyrazolo[1,5-a]pyridin-2-yl]cyclopropanecarboxamide] was tested. Which IC50 did it give?
**A.** Its IC50 is 32.8 nM.

**Q.** How did the IC50 turn out when `CN1CC(OCc2cnn(C)c2-c2ccn3nc(NC(=O)C4CC4)cc3c2)C1` [Example 361, N-[5-[2-methyl-4-[(1-methylazetidin-3-yl)oxymethyl]pyrazol-3-yl]pyrazolo[1,5-a]pyridin-2-yl]cyclopropanecarboxamide] was run?
**A.** The IC50 was 53.9 nM.

**Q.** `CN1CC[C@@H](OCc2cnn(C)c2-c2ccn3nc(NC(=O)C4CC4)cc3c2)C1` [Example 362, N-[5-[2-methyl-4-[[(3R)-1-methylpyrrolidin-3-yl]oxymethyl]pyrazol-3-yl]pyrazolo[1,5-a]pyridin-2-yl]cyclopropanecarboxamide] was tested. Which IC50 did it give?
**A.** Its IC50 is 52.8 nM.

**Q.** With `Cn1ncc(CO[C@H]2CCNC2)c1-c1ccn2nc(NC(=O)C3CC3)cc2c1` [Example 363, N-[5-[2-methyl-4-[[(3S)-pyrrolidin-3-yl]oxymethyl]pyrazol-3-yl]pyrazolo[1,5-a]pyridin-2-yl]cyclopropanecarboxamide] as the compound, how does the IC50 read?
**A.** The IC50 was 51.9 nM.

**Q.** Which IC50 does the source give for `Cc1cc(Nc2cc3cc(-c4c(CO[C@H]5CN(C)C[C@H]5C)cnn4C)ccn3n2)nc(C)n1` [Example 367, (rac-cis)-N-(2,6-dimethylpyrimidin-4-yl)-5-[4-[(1,4-dimethylpyrrolidin-3-yl)oxymethyl]-2-methyl-pyrazol-3-yl]pyrazolo[1,5-a]pyridin-2-amine] here?
**A.** Its IC50 is 2.9 nM.

**Q.** How did the IC50 turn out when `Cc1cncc(Nc2cc3cc(-c4c(CO[C@H]5CN(C)C[C@@H]5C)cnn4C)ccn3n2)n1` [Example 373, (rac-trans)-5-[4-[(1,4-dimethylpyrrolidin-3-yl)oxymethyl]-2-methyl-pyrazol-3-yl]-N-(6-methylpyrazin-2-yl)pyrazolo[1,5-a]pyridin-2-amine] was run?
**A.** Its IC50 is 7.2 nM.

**Q.** For `CN1CC[C@@H]1COc1cnn(C)c1-c1ccn2nc(Nc3cnc(C(C)(C)C)cn3)cc2c1` [Example 381, N-(5-tert-butylpyrazin-2-yl)-5-[2-methyl-4-[[(2R)-1-methylazetidin-2-yl]methoxy]pyrazol-3-yl]pyrazolo[1,5-a]pyridin-2-amine], which IC50 is on record?
**A.** The IC50 was 3.6 nM.

**Q.** With `Cc1onc(O[C@H]2CCN(C)C2)c1-c1ccn2nc(NC(=O)C3CC3)cc2c1` [Example 382, N-[5-[5-methyl-3-[(3S)-1-methylpyrrolidin-3-yl]oxy-isoxazol-4-yl]pyrazolo[1,5-a]pyridin-2-yl]cyclopropanecarboxamide] as the compound, how does the IC50 read?
**A.** The IC50 was 96.1 nM.

**Q.** `Cc1onc(OC[C@@H]2CCCNC2)c1-c1ccn2nc(NC(=O)C3CC3)cc2c1` [Example 383, N-[5-[5-methyl-3-[[(3R)-3-piperidyl]methoxy]isoxazol-4-yl]pyrazolo[1,5-a]pyridin-2-yl]cyclopropanecarboxamide] was tested. Which IC50 did it give?
**A.** Its IC50 is 89.9 nM.

**Q.** With `[2H]C([2H])([2H])N1CC[C@H](Oc2noc(C)c2-c2ccn3nc(NC(=O)C4CC4)cc3c2)C1` [Example 384, N-[5-[5-methyl-3-[(3S)-1-(trideuteriomethyl)pyrrolidin-3-yl]oxy-isoxazol-4-yl]pyrazolo[1,5-a]pyridin-2-yl]cyclopropanecarboxamide] as the compound, how does the IC50 read?
**A.** The IC50 was 161 nM.

**Q.** `Cc1onc(O[C@H]2C[C@H](N)C2)c1-c1ccn2nc(NC(=O)C3CC3)cc2c1` [Example 386, N-[5-[3-(3-aminocyclobutoxy)-5-methyl-isoxazol-4-yl]pyrazolo[1,5-a]pyridin-2-yl]cyclopropanecarboxamide] was tested. Which IC50 did it give?
**A.** Its IC50 is 111 nM.

**Q.** How did the IC50 turn out when `Cc1onc(OC[C@H]2C[C@H](N)C2)c1-c1ccn2nc(NC(=O)C3CC3)cc2c1` [Example 387, N-[5-[3-[(3-aminocyclobutyl)methoxy]-5-methyl-isoxazol-4-yl]pyrazolo[1,5-a]pyridin-2-yl]cyclopropanecarboxamide] was run?
**A.** The IC50 was 85.8 nM.

**Q.** With `Cc1onc(OC[C@H]2CCCN2C)c1-c1ccn2nc(NC(=O)C3CC3)cc2c1` [Example 388, N-[5-[5-methyl-3-[[(2R)-1-methylpyrrolidin-2-yl]methoxy]isoxazol-4-yl]pyrazolo[1,5-a]pyridin-2-yl]cyclopropanecarboxamide] as the compound, how does the IC50 read?
**A.** Its IC50 is 146 nM.

**Q.** How did the IC50 turn out when `Cc1onc(O[C@@H]2CN[C@H](C(F)F)C2)c1-c1ccn2nc(NC(=O)C3CC3)cc2c1` [Example 389, N-[5-[3-[(3S,5S)-5-(difluoromethyl)pyrrolidin-3-yl]oxy-5-methyl-isoxazol-4-yl]pyrazolo[1,5-a]pyridin-2-yl]cyclopropanecarboxamide] was run?
**A.** The IC50 was 125 nM.
